Experimental data reported in patent publication US20120065365A1, “Stable Radiopharmaceutical Compositions and Methods for Their Preparation” (BRACCO IMAGING S.P.A., priority 2003, published 2012).
Read-outs that look alike come from different tables or passages of the source.

What was measured:
[1] = Radiostability (RCP, Met═O by HPLC) of preformed ^177Lu-A with individual amino acids added (Example 1); assay type: physicochemical; conditions: amino acid 6.6 mg/mL, room temperature
Experimental: (§1) The injection volume was 20 μL.
Solutions of the individual amino acids L-Methionine, L-Selenomethionine, L-cysteine HCl.H2O, L-Tryptophan, L-Histidine, and Glycine were prepared at a concentration of 10 mg/mL in 10 mM Dulbecco's phosphate-buffered saline, pH 7.0 [PBS].
The final radioactive concentration of each sample was ˜20 mCi/mL.

[2] = assay type: physicochemical; conditions: ^177Lu-A (2.7-3.7 mCi) prepared in presence of 1 mg/mL stabilizer
Experimental: The injection volume was 10 μL.
Each individual stabilizer was prepared at a concentration of 1 mg/mL in sodium acetate (NaOAc) buffer (0.2 M, pH 4.8). […] The reaction mixture was heated to 100° C. for 5 minutes, and then cooled for 5 minutes in an ambient-temperature water hath. To each sample, 10 μL of 2% Na2EDTA.2H2in water was added, and then each was divided into two 100-μL aliquots. One aliquot was analyzed by HPLC (Method 5) and then stored at room temperature in a sealed lead container for 24 hours. The other aliquot was stored frozen (−10° C.) for 24 hours. Each sample was analyzed at t=24 h.

[3] = assay type: physicochemical; conditions: ^177Lu-A (3.6 mCi) prepared in presence of 2.5 mg/mL stabilizer
Experimental: To lead-shielded 4-mL vials was added 200 μL of the individual NaOAc-stabilizer solutions, 3.58 mCi ^177LuCl3 (avg) and 5.08 μg COMPOUND A (dissolved in water). The ratio of COMPOUND A to Lutetium was 3:1 for all samples. The reaction mixtures were heated to 100° C. for 5 minutes, then cooled, treated with Na2EDTA.2H2O, subdivided and stored as described in Example 9. The radiochemical purity (RCP) percentage data obtained are listed Table 12.

[4] = assay type: physicochemical
Experimental: as §1
Each stabilizer was prepared at a concentration of 5 mg/mL in sodium acetate (NaOAc) buffer (0.2 M, pH 4.8). To lead-shielded 4-mL vials were added 200 μL of the individual stabilizer solutions, 3.55 mCi ^177LuCl3 (avg) and 5.44 μg COMPOUND A (dissolved in water). A second set of replicates of each sample was prepared, using the individual stabilizers. To these was added 4.37 mCi ^177LuCl3 (avg) and 6.7 μg (avg) COMPOUND A (dissolved in water). The ratio of COMPOUND A to lutetium was 3:1 for all samples. The reaction mixture was heated to 100° C. for 5 minutes then cooled for 5 minutes in an ambient-temperature water bath. To each sample, 10 μL of 2% Na2EDTA.2H2O in water was added, then each was analyzed by HPLC (Method 1 for the first set of replicates; Method 2 for the second set of replicates). The second set of replicates were stored and analyzed again at t=24 h.

[5] = assay type: physicochemical; remark: listed apart in the source
Experimental: The reaction vial was crimp-sealed and heated at 100° C. for 5 min. […] The sample was stored in an autosampler in which the temperature is ˜6° C. […] than room temperature, and analyzed by RP-HPLC for up to 24 hours.
L-Selenomethionine: ^177Lu-B was prepared, diluted and analyzed as described above, but 5 mg of L-Se-Met was used in place of PDTC, the heating time was 10 minutes, and the quantity of radioactivity used was 52 mCi.
L-cysteine ethyl ester, HCl: ^177Lu-B was prepared, diluted and analyzed as described above, but 5 mg of L-CEE, hydrochloride salt was used in place of PDTC, the heating time was 5 minutes and the quantity of radioactivity used was 50 mCi.
L-cysteine HCl.H2O: ^177Lu-B was prepared, diluted and analyzed as described above, but 5 mg of L-Cys HCl.H2O was used in place of PDTC, the heating time was 8 minutes and the quantity of radioactivity used was 53 mCi.

[6] = Labeling efficiency and stability of ^111In-B with selenomethionine 2.5 mg/mL (Example 21); assay type: physicochemical
Experimental: A solution of L-selenomethionine (20 mg/mL) was prepared by dissolving it in NaOAc buffer (0.2 M, pH 4.0). To a lead-shielded 2-mL vial was added 111 μL of NaOAc buffer (0.2 M, pH 4.0), 25 μL selenomethionine solution (0.5 mg of Se-Met), 4 μL of COMPOUND B (20 μg in 0.01 N HCl) and 1.0 mCi ^111InCl3 in 60 μL of 0.05 N HCl. A control reaction was run containing all reagents above, but substituting NaOAc buffer for the Se-Met solution. The reaction mixtures were heated at 100° C. for 15 minutes, and then cooled for 1 minute in an ambient-temperature water bath. To each sample, 200 μL of stabilizing solution (0.2% HSA, 5% ascorbic acid, 0.9% benzyl alcohol, 20 mM Se-Met in 50 mM citrate buffer, pH 5.3) and 2 μL of 1% Na2EDTA.2H2O in water were added, and then each was analyzed stored at room temperature for up to 6 hours and analyzed by HPLC as described below. HPLC conditions: Vydac C18 column, 4.6×250 mm, 5 μM, 1.5 mL/min flow rate at 30° C. Solvent A: 0.1% TFA in water; Solvent B: 0.085% TFA in acetonitrile. Gradient: 80% A/20% B isocratic for 20 min, ramp up to 40% A/60% B in 5 min, hold for 5 mm, return to 80% A/20% B in 5 min.

0-1 h RCP (%) ([1]; ^177Lu-A ~20 mCi/mL (3.5 mCi total), 0-1 h): 100%
24-h RCP (%) ([1]; ^177Lu-A ~20 mCi/mL, 24 h): 99.1%
48-h RCP (%) ([1]; ^177Lu-A ~20 mCi/mL, 48 h): 99.9%
RCP % t = 24 h (frozen) ([2]; 24 h frozen (−10° C.)): 99.2%
RCP % t = 24 h (room temp) ([2]; 24 h room temp): 100%
RCP % t = 0 h ([2]; t = 0 h): 100%
RCP % t = 24 h (frozen) ([3]; 24 h frozen): 94.7%
RCP % t = 24 h (room temp) ([3]; 24 h room temp): 95.6%
RCP % t = 0 h ([3]; t = 0 h): 95.7%
Replicate 1 RCP % t = 0 h ([4]; ^177Lu-A (3.55 mCi avg) prepared in presence of 5 mg/mL stabilizer, HPLC Method 1, t = 0 h): 57.5%
Replicate 2 RCP % t = 0 h ([4]; ^177Lu-A (4.37 mCi avg) prepared in presence of 5 mg/mL stabilizer, HPLC Method 2, t = 0 h): 60.6%
Replicate 2 RCP % t = 24 h ([4]; ^177Lu-A (4.37 mCi avg) prepared in presence of 5 mg/mL stabilizer, HPLC Method 2, t = 24 h): 57.1%
(% RCP) 3-h ([5]; ^177Lu-B (44-53 mCi) formulated with 5 mg stabilizing compound, 3 h): 94.6%
(% RCP) 6-h ([5]; ^177Lu-B (44-53 mCi) formulated with 5 mg stabilizing compound, 6 h): 94.4%
(% RCP) 9-h ([5]; ^177Lu-B (44-53 mCi) formulated with 5 mg stabilizing compound, 9 h): 93.3%
(% RCP) 12-h ([5]; ^177Lu-B (44-53 mCi) formulated with 5 mg stabilizing compound, 12 h): 92.6%
(% RCP) 24-h ([5]; ^177Lu-B (44-53 mCi) formulated with 5 mg stabilizing compound, 24 h): 90.6%
(% RCP) 0-h ([5]; ^177Lu-B (44-53 mCi) formulated with 5 mg stabilizing compound, diluted to ~2 mL, ~6° C. above room temperature, 0 h): 95.0%
RCP Drop over 24 hr ([5]; ^177Lu-B formulated with 5 mg stabilizing compound, 0 to 24 h): 4.4%
RCP, % t = 0 ([6]; ^111In-B (1.0 mCi) prepared in presence of selenomethionine 2.5 mg/mL, stabilizing solution added after, t = 0): 98.3%
RCP, % t = 6 h ([6]; ^111In-B prepared in presence of selenomethionine 2.5 mg/mL, room temperature, 6 h): 96.6%
Compound: C[Se]CC[C@H](N)C(=O)O [L-Selenomethionine]
